Experimental findings from US9920042B2, “Compounds for use in the treatment of mycobacterial infections” (Universite de Droit et de la Sante de Lille 2, priority 2012, dated 2018) are described below.

SMILES strings stand for the structures. Where two headings read alike, the source gives them in different places.

The target of data set [1] is EthR protein (Mycobacterium tuberculosis, UniProt P9WMC1). Kind of data set: TSA test (Thermal Shift Assay), fluorescence with Sypro Orange. Format: binding, M. tuberculosis. As to conditions: melting temperature shift of EthR with ligand vs protein alone.
Data set [2] deals with M. tuberculosis alone or macrophages infected by M. tuberculosis. Description: Potentiation of ethionamide cell test (High Content Screening). Format: cell-based. As to conditions: ligand concentration potentiating ten times the activity of ethionamide, ethionamide constant at 0.1 μg/mL (1/10th of its CMI99).
Data set [3] is described as follows: Measurement of the solubility. It counts as physicochemical. The settings on record: aqueous buffer, kinetic from dmso stock; PBS at pH 7.4, 24 h at AT, LC-MS ratio PBS/MeOH; read-out: Solubilité. Here is the method: Measurement of the Solubility
40 μL of a solution at 10 mM in DMSO of the sample are added at 1.96 mL MeOH or PBS at pH 7.4. The samples are then agitated during 24 h at AT, centrifuged during 5 min and then filtrated on filters of 0.45 μm size. 20 μL of each solution are then added to 180 μL MeOH and then analyzed by LC-MS. The solubility is determined as ratio of the surfaces of the mass signals PBS/MeOH.

The nature of data set [4]: Measurement of the log D. It counts as physicochemical. As to conditions: octanol/PBS (1/1); octanol/PBS at pH 7.4, triplicate. Here is the method:
40 μL of a solution at 10 mM in the DMSO of the sample are added to 1.96 mL of a mixture of 1/1 octanol/PBS at pH 7.4. The solution is agitated during 2 h at AT. 20 μL of each phase are added to 180 μL MeOH and analyzed by LC-MS. Each compound is evaluated in triplicate. The log D is determined as being the logarithm of the ratio of the product concentrations in the octanol and PBS phases, determined par the mass signals.

Data set [5] concerns the target EthR protein (interaction with the ethA gene promoter) (Mycobacterium tuberculosis, UniProt P9WMC1). Description: Surface Plasmon Resonance test (SPR): inhibition of EthR binding to the ethA gene promoter. Format: biochemical, M. tuberculosis. From the text:
Surface Plasmon Resonance test (SPR) (described in the article “Ethionamide Boosters Combining Bioisosteric Replacement and Structure-Based Drug Design to Solve Pharmacokinetic Issues in a series of potent 1,2,4-Oxadiazole EthR Inhibitors” published in 2012 in the Journal of Medicinal Chemistry)
After having measured the ligands' affinity for the protein, it is necessary to verify that this does indeed result in the inactivation of the transcriptional repressor, thus preventing it from binding to its operon. For this, a functional test based on the principle of surface plasmon resonance is used. Surface Plasmon Resonance (SPR) makes it possible to visualize in real time the phenomena of association or dissociation between a partner immobilized on a biosensor and, a second partner injected in a continuous flow onto this surface. In the present case, the SPR technique enables the interaction between the EthR protein (analyte injected in continuous flow) and the ethA gene promoter (partner immobilized on the surface) to be visualized. Two cells are used for the test: a measuring cell onto which the so-called relevant DNA is affixed, i.e. corresponding to the ethA gene promoter, and a control cell on which is a non-relevant (thus different) DNA strand of same length, enabling the non-specific protein/DNA interactions to be removed. In a first step, the EthR protein is injected alone, until saturation, which enables a signal SIEthR corresponding to the quantity of EthR protein that has come to bind to the DNA to be measured. In a second step, the experience is reiterated in the presence of a potential ligand at different concentrations. If the compound binds to the EthR, thus preventing it from coming to bind on the DNA, a diminution of the response of the dose-dependent signal (SIEthR+lig) is observed.
By using the equation hereafter, it is possible to calculate for each concentration a percentage for the inhibition of the ligand under examination:
By representing the variation of the inhibition percentage depending on the ligand concentration, a value for IC50 can be deduced.

Sequence of EthR protein (interaction with the ethA gene promoter) (P9WMC1 whole entry, looked up): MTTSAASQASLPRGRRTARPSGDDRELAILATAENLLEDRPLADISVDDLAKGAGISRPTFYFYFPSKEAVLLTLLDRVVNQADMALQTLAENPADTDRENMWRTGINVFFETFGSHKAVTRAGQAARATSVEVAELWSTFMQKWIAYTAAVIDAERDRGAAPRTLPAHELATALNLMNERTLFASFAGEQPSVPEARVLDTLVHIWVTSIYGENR
Sequence of EthR protein (P9WMC1 whole entry, looked up): as above

For the molecule `O=C(NCCC(F)(F)F)c1ccc(-c2csc(-c3ccncc3)n2)cc1` [Compound 57, 4-(2-(pyridin-4-yl)thiazol-4-yl)-N-(3,3,3-trifluoropropyl)benzamide], the shift in melting temperature (ΔTm) in data set [1] is 12.6 °C. In addition, the EC50 in data set [2] (read-out: EC50) is under 10 nM. For the same molecule, the solubility at 24 h in data set [3] was determined as 29 µM. Further, in data set [4], the logD at 2 h came to 3.07.
On to `Cc1nc(-c2ccc(S(=O)(=O)NCCC(F)(F)F)cc2)cs1` [Compound 24], for which, in data set [1], the ΔTm is 8.5 °C. Besides, the IC50 in data set [5] worked out at 550 ± 20 nM. The EC50 in data set [2] (read-out: EC50) amounted to 290 nM. Moreover, in data set [3], the solubility at 24 h amounted to 41.4 µM. For the same molecule, the logD at 2 h in data set [4] amounted to 3.12.
As to `CCc1cc(-c2nc(-c3ccc(C(=O)NCCC(F)(F)F)cc3)cs2)ccn1` [Compound 58, 4-(2-(2-ethylpyridin-4-yl)thiazol-4-yl)-N-(3,3,3-trifluoropropyl)benzamide], in data set [1], the ΔTm came out at 13.3 °C. Also, the concentration for a half-maximal effect (EC50) in data set [2] (read-out: EC50) was under 10 nM. In addition, in data set [3], the solubility at 24 h is 3.3 µM. Moreover, in data set [4], the log distribution coefficient (logD) at 2 h was determined as 3.95.
On to `Cc1nc(-c2ccc(C(=O)NCCC(F)(F)F)cc2)cs1` [Compound 43, 4-(2-methylthiazol-4-yl)-N-(3,3,3-trifluoropropyl)benzamide], for which the shift in melting temperature (ΔTm) in data set [1] worked out at 11.4 °C. The IC50 in data set [5] was found to be 480 ± 60 nM. Further, in data set [2] (read-out: EC50), the EC50 was 83 nM. In addition, the solubility at 24 h in data set [3] came out at 46.9 µM. The molecule also registered a logD at 2 h in data set [4] of 2.82.
As for `CC(C)OC(=O)Cc1nc(-c2ccc(S(=O)(=O)NCCC(F)(F)F)cc2)cs1` [Compound 35, 2-(4-(4-(N-(3,3,3-trifluoropropyl)sulfamoyl)phenyl)thiazol-2-yl) isopropyl acetate], the ΔTm in data set [1] was determined as 11.6 °C. The concentration giving a half-maximal response (EC50) in data set [2] (read-out: EC50) amounted to 300 nM. Further, in data set [3], the solubility at 24 h was found to be 2.8 µM. The molecule further yielded a pH-dependent lipophilicity (logD) at 2 h in data set [4] of 3.76.
For the molecule `[N-]=[N+]=Nc1ccc(C(=O)NCCC(F)(F)F)cc1` [Compound 92, 4-azido-N-(3,3,3-trifluoropropyl)benzamide], in data set [1], the ΔTm amounted to 6.0 °C. For the same molecule, the concentration giving a half-maximal response (EC50) in data set [2] (read-out: EC50) was 1100 nM.
For `CC(C)CCCc1nc(-c2ccc(S(=O)(=O)NCCC(F)(F)F)cc2)cs1` [Compound 38, 4-(2-(4-methylpentyl)thiazol-4-yl)-N-(3,3,3-trifluoropropyl)benzene sulfonamide], the thermal shift (ΔTm) in data set [1] came out at 12.4 °C. Also, the EC50 in data set [2] (read-out: EC50) is 390 nM. Besides, the solubility at 24 h in data set [3] was under 1 µM. Besides, in data set [4], the logD at 2 h is over 4.
For the molecule `Cc1nc(-c2ccc(S(=O)(=O)NCC(F)(F)C(F)(F)C(F)(F)F)cc2)cs1` [Compound 28, N-(2,2,3,3,4,4,4-heptafluorobutyl)-4-(2-methylthiazol-4-yl)benzene sulfonamide], the ΔTm in data set [1] stood at 7.3 °C. Further, the EC50 in data set [2] was over 2500 nM.
For the molecule `CC(C)Cc1nc(-c2ccc(C(=O)NCCC(F)(F)F)cc2)cs1` [Compound 49, 4-(2-isobutylthiazol-4-yl)-N-(3,3,3-trifluoropropyl)benzamide], the ΔTm in data set [1] worked out at 12.6 °C. This molecule came in with a concentration for half-maximal inhibition (IC50) in data set [5] of 440 ± 10 nM. Also, the EC50 in data set [2] (read-out: EC50) is under 40 nM. Moreover, the solubility at 24 h in data set [3] amounted to 4.4 µM. The logD at 2 h in data set [4] was determined as 3.91.
For the molecule `Cc1nc(-c2ccc(S(=O)(=O)NCCC(C)C)cc2)cs1` [Compound 6, 4-(2-methylthiazol-4-yl)-N-isopentyl benzene sulfonamide], in data set [1], the ΔTm stood at 6.1 °C. The molecule further had an IC50 in data set [5] of 4900 ± 100 nM. Besides, the EC50 in data set [2] (read-out: EC50) is 5700 nM. In addition, in data set [3], the solubility at 24 h was 20 µM. In addition, in data set [4], the logD at 2 h turned out to be 3.55.

The ΔTm is the change in melting temperature against a reference sample. As a reminder, the EC50 is the concentration at which the effect is half-maximal. Broadly, the logD is lipophilicity at a set pH, counting ionised and neutral species. Read a low logD as lower lipophilicity. The IC50 is the midpoint of a concentration-inhibition curve. Low readings indicate greater potency, high ones weaker potency.
